ChEMBL document CHEMBL5729604, “Dihydrothieno[3,2-b]pyridine compounds” (2023)

What follows are compounds tested against Flap endonuclease 1 (Homo sapiens, UniProt P39748) (assay: Enzymatic IC50 Assays: FEN1, EXO1 or XPG enzyme was incubated with compound or vehicle (DMSO) and the FAM-labeled DNA oligomer substrate in a microtiter plate. The stop buffer contains EDTA to stop the enzymatic reaction. The plate is read for fluorescence intensity. The high control (DMSO) with high fluorescence intensity represents no inhibition of enzymatic reaction while the low control (10 μM) with low fluorescence intensity represents full inhibition of enzymatic reaction.).
Chain of Flap endonuclease 1 (P39748 whole entry): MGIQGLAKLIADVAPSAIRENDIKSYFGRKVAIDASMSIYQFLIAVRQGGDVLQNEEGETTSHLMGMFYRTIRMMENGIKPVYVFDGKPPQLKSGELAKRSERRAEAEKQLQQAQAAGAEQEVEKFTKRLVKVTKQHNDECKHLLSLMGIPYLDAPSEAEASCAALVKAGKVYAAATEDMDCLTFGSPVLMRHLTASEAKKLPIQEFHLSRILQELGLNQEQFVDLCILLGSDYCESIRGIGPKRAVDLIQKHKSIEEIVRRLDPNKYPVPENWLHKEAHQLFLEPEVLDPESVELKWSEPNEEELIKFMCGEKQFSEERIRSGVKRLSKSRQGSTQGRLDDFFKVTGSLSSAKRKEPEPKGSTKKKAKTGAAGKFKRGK

Compound	IC50
COc1ccc(Cn2cc(Cn3c(=O)c(O)c(C(=O)O)c4sccc43)cn2)cc1	< 200 nM
Cc1c(Cn2c(=O)c(O)c(C(=O)O)c3sccc32)cnn1C	< 200 nM
O=C(O)c1c(O)c(=O)n(Cc2cnn(-c3cccc(Cl)c3)c2)c2ccsc12	< 200 nM

More lines, now with the values ahead:

IC50	Compound
< 200 nM	O=C(O)c1c(O)c(=O)n(Cc2cnc3ccccn23)c2ccsc12
< 200 nM	COc1cccc(-n2cc(Cn3c(=O)c(O)c(C(=O)O)c4sccc43)cn2)c1
< 200 nM	COc1ccc(Cn2c(=O)c(O)c(C(=O)O)c3sccc32)cn1
